From patent US20240083845A1 (priority 2020, published 2024)

Molecular target: SARS-CoV-2 Mpro (Severe acute respiratory syndrome coronavirus 2, UniProt P0DTD1)
Test: SARS-CoV-2 Mpro enzyme assay (FRET)
Format: biochemical
Conditions: FRET substrate Dabcyl-KTSAVLQSGFRKM-E(Edans)-Amide, 20 nM enzyme, 30 min preincubation at 30° C., mean n=2; read-out: SARS-CoV-2 Mpro enzyme assay pKi (converted)

Structure (SMILES)	Ki [µM]
CC[C@@H](CC(=O)N[C@@H](CC(C)(C)C)C(=O)NC(C[C@@H]1CCNC1=O)C(=O)C(=O)NC1CC1)c1ccccc1 (single isomer, unassigned) [Example 14]	0.00794
CC[C@H](CC(=O)N[C@@H](CC(C)(C)C)C(=O)NC(C[C@@H]1CCNC1=O)C(=O)C(=O)NC1CC1)c1ccccc1 (single isomer, unassigned) [Example 15]	0.01
CC(C)(C)C[C@H](NC(=O)C[C@@H](c1ccccc1)C(F)(F)F)C(=O)NC(C[C@@H]1CCNC1=O)C(=O)C(=O)NC1CC1 (single isomer, unassigned) [Example 16]	0.02
CC(C)(C)C[C@H](NC(=O)C[C@H](c1ccccc1)C(F)(F)F)C(=O)NC(C[C@@H]1CCNC1=O)C(=O)C(=O)NC1CC1 (single isomer, unassigned) [Example 17]	0.0126
NC(=O)C(=O)C(C[C@@H]1CCNC1=O)NC(=O)[C@H](CC1CC1)NC(=O)/C=C/c1ccc(Cl)cc1F (stereo partly drawn) [Example 1, 3-((S)-2-((E)-3-(4-chloro-2-fluorophenyl)acrylamido)-3-cyclopropylpropanamido)-2-oxo-4-((S)-2-oxopyrrolidin-3-yl)butanamide]	0.0126
NC(=O)C(=O)C(C[C@@H]1CCNC1=O)NC(=O)[C@H](CC1CC1)NC(=O)/C=C/c1ccccc1 (stereo partly drawn) [Example 2, 3-((S)-2-cinnamamido-3-cyclopropylpropanamido)-2-oxo-4-((S)-2-oxopyrrolidin-3-yl)butanamide]	0.02
NC(=O)C(=O)C(C[C@@H]1CCNC1=O)NC(=O)[C@H](CC1CC1)NC(=O)OCc1ccccc1 (stereo partly drawn) [Example 3, benzyl ((2S)-1-((4-amino-3,4-dioxo-1-((S)-2-oxopyrrolidin-3-yl)butan-2-yl)amino)-3-cyclopropyl-1-oxopropan-2-yl)carbamate]	0.0251
NC(=O)C(=NO)C(C[C@@H]1CCNC1=O)NC(=O)[C@H](CC1CC1)NC(=O)/C=C/c1ccc(Cl)cc1F (stereo partly drawn) [Example 4, 3-((S)-2-((E)-3-(4-chloro-2-fluorophenyl)acrylamido)-3-cyclopropylpropanamido)-2-(hydroxyimino)-4-((S)-2-oxopyrrolidin-3-yl)butanamide]	1
CC(C)(C)NC(=O)C(=O)C(C[C@@H]1CCNC1=O)NC(=O)[C@H](CC1CC1)NC(=O)/C=C/c1ccc(Cl)cc1F (stereo partly drawn) [Example 5, N-(tert-butyl)-3-((S)-2-((E)-3-(4-chloro-2-fluorophenyl)acrylamido)-3-cyclopropylpropanamido)-2-oxo-4-((S)-2-oxopyrrolidin-3-yl)butanamide]	0.501
NC(=O)C(=O)C(CC1CC1)NC(=O)[C@H](CC1CC1)NC(=O)/C=C/c1ccc(Cl)cc1F (stereo partly drawn) [Example 6, 3-((S)-2-((E)-3-(4-chloro-2-fluorophenyl)acrylamido)-3-cyclopropylpropanamido)-4-cyclopropyl-2-oxobutanamide]	5.01
NC(=O)C(=O)C(CC1CCCC1)NC(=O)[C@H](CC1CC1)NC(=O)/C=C/c1ccc(Cl)cc1F (stereo partly drawn) [Example 7, 3-((S)-2-((E)-3-(4-chloro-2-fluorophenyl)acrylamido)-3-cyclopropylpropanamido)-4-cyclopentyl-2-oxobutanamide]	7.94
NC(=O)C(=O)C(C[C@@H]1CCNC1=O)NC(=O)[C@H](CC1CC1)NC(=O)CCc1ccccc1 (stereo partly drawn) [Example 8, 3-((S)-3-cyclopropyl-2-(3-phenylpropanamido)propanamido)-2-oxo-4-((S)-2-oxopyrrolidin-3-yl)butanamide]	0.0501
CC(C)(C)C[C@H](NC(=O)/C=C/c1ccc(Cl)cc1Cl)C(=O)NC(C#N)C[C@@H]1CCNC1=O (stereo partly drawn) [Example 9, (2S)-N-(1-Cyano-2-((S)-2-oxopyrrolidin-3-yl)ethyl)-2-((E)-3-(2,4-dichlorophenyl)acrylamido)-4,4-dimethylpentanamide]	0.398
CC(C)(C)C[C@H](NC(=O)/C=C/c1ccc(Cl)cc1Cl)C(=O)NC(C[C@@H]1CCNC1=O)C(=O)C(=O)NC1CC1 (stereo partly drawn) [Example 10, (2S)-N-(4-(Cyclopropylamino)-3,4-dioxo-1-((S)-2-oxopyrrolidin-3-yl)butan-2-yl)-2-((E)-3-(2,4-dichlorophenyl)acrylamido)-4,4-dimethylpentanamide]	0.00631
CC(C)(C)C[C@H](NC(=O)/C=C/c1ccc(Cl)cc1F)C(=O)NC(C[C@@H]1CCNC1=O)C(=O)C(=O)NC1CC1 (stereo partly drawn) [Example 11, (2S)-2-((E)-3-(4-chloro-2-fluorophenyl)acrylamido)-N-(4-(cyclopropylamino)-3,4-dioxo-1-((S)-2-oxopyrrolidin-3-yl)butan-2-yl)-4,4-dimethylpentanamide]	100000
C[C@@H](CC(=O)N[C@@H](CC(C)(C)C)C(=O)NC(C[C@@H]1CCNC1=O)C(=O)C(=O)NC1CC1)c1ccccc1 (stereo partly drawn) [Example 12, (2S)-N-(4-(cyclopropylamino)-3,4-dioxo-1-((S)-2-oxopyrrolidin-3-yl)butan-2-yl)-4,4-dimethyl-2-((S)-3-phenylbutanamido)pentanamide]	0.0158
C[C@H](CC(=O)N[C@@H](CC(C)(C)C)C(=O)NC(C[C@@H]1CCNC1=O)C(=O)C(=O)NC1CC1)c1ccccc1 (stereo partly drawn) [Example 13, (2S)-N-(4-(cyclopropylamino)-3,4-dioxo-1-((S)-2-oxopyrrolidin-3-yl)butan-2-yl)-4,4-dimethyl-2-((R)-3-phenylbutanamido)pentanamide]	0.0158
CC(C)C[C@H](NC(=O)/C=C/c1ccc(Cl)cc1F)C(=O)NC(C[C@@H]1CCNC1=O)C(=O)C(N)=O (stereo partly drawn) [Example 18, (2S)-N-(4-amino-3,4-dioxo-1-((S)-2-oxopyrrolidin-3-yl)butan-2-yl)-2-((E)-3-(4-chloro-2-fluorophenyl)acrylamido)-4-methylpentanamide]	0.0126
CCNC(=O)C(=O)C(C[C@@H]1CCNC1=O)NC(=O)[C@H](CC1CC1)NC(=O)/C=C/c1ccc(Cl)cc1F (stereo partly drawn) [Example 19, 3-((S)-2-((E)-3-(4-chloro-2-fluorophenyl)acrylamido)-3-cyclopropylpropanamido)-N-ethyl-2-oxo-4-((S)-2-oxopyrrolidin-3-yl)butanamide]	0.0126
NC(=O)C(=O)C(C[C@@H]1CCNC1=O)NC(=O)[C@H](CC1CC1)NC(=O)/C=C/c1ccc(Cl)cc1Cl (stereo partly drawn) [Example 20, 3-((S)-3-cyclopropyl-2-((E)-3-(2,4-dichlorophenyl)acrylamido)propanamido)-2-oxo-4-((S)-2-oxopyrrolidin-3-yl)butanamide]	0.1
O=C(/C=C/c1ccc(Cl)cc1F)N[C@@H](CC1CC1)C(=O)NC(C[C@@H]1CCNC1=O)C(=O)C(=O)NC1CC1 (stereo partly drawn) [Example 21, 3-((S)-2-((E)-3-(4-chloro-2-fluorophenyl)acrylamido)-3-cyclopropylpropanamido)-N-cyclopropyl-2-oxo-4-((S)-2-oxopyrrolidin-3-yl)butanamide]	0.00794
CC(C)(C)C[C@H](NC(=O)/C=C/c1ccc(Cl)cc1F)C(=O)NC(C[C@@H]1CCNC1=O)C(=O)C(N)=O (stereo partly drawn) [Example 22, (2S)-N-(4-amino-3,4-dioxo-1-((S)-2-oxopyrrolidin-3-yl)butan-2-yl)-2-((E)-3-(4-chloro-2-fluorophenyl)acrylamido)-4,4-dimethylpentanamide]	0.00631
CCNC(=O)C(=O)C(C[C@@H]1CCNC1=O)NC(=O)[C@H](CC(C)(C)C)NC(=O)/C=C/c1ccc(Cl)cc1F (stereo partly drawn) [Example 23, (2S)-2-((E)-3-(4-chloro-2-fluorophenyl)acrylamido)-N-(4-(ethylamino)-3,4-dioxo-1-((S)-2-oxopyrrolidin-3-yl)butan-2-yl)-4,4-dimethylpentanamide]	0.0126
